From PubChem BioAssay AID1919016 (Molecular Pharmacology Branch, DTP, NCI, 2023)

System: NCI-H196 complex spheroid growth, percent test/control
Assay: Anticancer human tumor NCI-H196 cell line growth inhibition [AhR];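 note: seven days of drug exposure starting three days after plating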;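 for viability, T/C: 100% = DMSO vehicle control wells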
Details: for IC50: curve of first compound; for viability, T/C: stronger effect = lower value
Outline: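 Complex tumor spheroids co-cultured with HUVEC and human MSC stroma; AhR antagonists tested in combination with standard-of-care and investigational agents. Top concentration at or near clinical Cmax (else 10 microM), half-log dilutions; growth expressed as percent test/control.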

[1] = second compound 0.1 µM, first compound 0.000949 µM
[2] = second compound 0.1 µM, first compound 0.003 µM
[3] = second compound 0.1 µM, first compound 0.00949 µM
[4] = second compound 0.1 µM, first compound 0.03 µM
[5] = second compound 0.1 µM, first compound 0.0949 µM
[6] = second compound 0.1 µM, first compound 0.3 µM
[7] = second compound 0.316 µM, first compound 0.000949 µM
[8] = second compound 0.316 µM, first compound 0.003 µM
[9] = second compound 0.316 µM, first compound 0.00949 µM
[10] = second compound 0.316 µM, first compound 0.03 µM
[11] = second compound 0.316 µM, first compound 0.0949 µM
[12] = second compound 0.316 µM, first compound 0.3 µM
[13] = second compound 1 µM, first compound 0.000949 µM
[14] = second compound 1 µM, first compound 0.003 µM
[15] = second compound 1 µM, first compound 0.00949 µM
[16] = second compound 1 µM, first compound 0.03 µM
[17] = second compound 1 µM, first compound 0.0949 µM
[18] = second compound 1 µM, first compound 0.3 µM
[19] = second compound 3.16 µM, first compound 0.000949 µM
[20] = second compound 3.16 µM, first compound 0.003 µM
[21] = second compound 3.16 µM, first compound 0.00949 µM
[22] = second compound 3.16 µM, first compound 0.03 µM
[23] = second compound 3.16 µM, first compound 0.0949 µM
[24] = second compound 3.16 µM, first compound 0.3 µM
[25] = second compound 10 µM, first compound 0.000949 µM
[26] = second compound 10 µM, first compound 0.003 µM
[27] = second compound 10 µM, first compound 0.00949 µM
[28] = second compound 10 µM, first compound 0.03 µM
[29] = second compound 10 µM, first compound 0.0949 µM
[30] = second compound 10 µM, first compound 0.3 µM
[31] = second compound 0.1 µM, first compound 0.0316 µM
[32] = second compound 0.1 µM, first compound 0.1 µM
[33] = second compound 0.1 µM, first compound 0.316 µM
[34] = second compound 0.1 µM, first compound 1 µM
[35] = second compound 0.1 µM, first compound 3.16 µM
[36] = second compound 0.1 µM, first compound 10 µM
[37] = second compound 0.316 µM, first compound 0.0316 µM
[38] = second compound 0.316 µM, first compound 0.1 µM
[39] = second compound 0.316 µM, first compound 0.316 µM
[40] = second compound 0.316 µM, first compound 1 µM
[41] = second compound 0.316 µM, first compound 3.16 µM
[42] = second compound 0.316 µM, first compound 10 µM
[43] = second compound 1 µM, first compound 0.0316 µM
[44] = second compound 1 µM, first compound 0.1 µM
[45] = second compound 1 µM, first compound 0.316 µM
[46] = second compound 1 µM, first compound 1 µM
[47] = second compound 1 µM, first compound 3.16 µM
[48] = second compound 1 µM, first compound 10 µM
[49] = second compound 3.16 µM, first compound 0.0316 µM
[50] = second compound 3.16 µM, first compound 0.1 µM
[51] = second compound 3.16 µM, first compound 0.316 µM
[52] = second compound 3.16 µM, first compound 1 µM
[53] = second compound 3.16 µM, first compound 3.16 µM
[54] = second compound 3.16 µM, first compound 10 µM
[55] = second compound 10 µM, first compound 0.0316 µM
[56] = second compound 10 µM, first compound 0.1 µM
[57] = second compound 10 µM, first compound 0.316 µM
[58] = second compound 10 µM, first compound 1 µM
[59] = second compound 10 µM, first compound 3.16 µM
[60] = second compound 10 µM, first compound 10 µM

CC(C)CC(NC(=O)C(Cc1ccccc1)NC(=O)c1cnccn1)B(O)O (stereo not given) + CC(CO)NC(=O)c1cc(-c2ccc(Cl)cc2)nn(-c2cnn(C)c2)c1=O
IC50 (second compound 0.1 µM): 7.64 nM
IC50 (second compound 0.316 µM): 8.07 nM
IC50 (second compound 1 µM): 8.7 nM
IC50 (second compound 3.16 µM): 10.6 nM
IC50 (second compound 10 µM): 8.75 nM
viability, T/C [1]: 108%
viability, T/C [2]: 106%
viability, T/C [3]: 37%
viability, T/C [4]: 3.54%
viability, T/C [5]: 2.43%
viability, T/C [6]: 2.49%
viability, T/C [7]: 106%
viability, T/C [8]: 101%
viability, T/C [9]: 41.8%
viability, T/C [10]: 2.17%
viability, T/C [11]: 2.62%
viability, T/C [12]: 1.45%
viability, T/C [13]: 109%
viability, T/C [14]: 103%
viability, T/C [15]: 45.8%
viability, T/C [16]: 3.07%
viability, T/C [17]: 1.88%
viability, T/C [18]: 2.1%
viability, T/C [19]: 118%
viability, T/C [20]: 113%
viability, T/C [21]: 54.9%
viability, T/C [22]: 3.25%
viability, T/C [23]: 1.7%
viability, T/C [24]: 1.74%
viability, T/C [25]: 112%
viability, T/C [26]: 116%
viability, T/C [27]: 45.1%
viability, T/C [28]: 2.87%
viability, T/C [29]: 2.23%
viability, T/C [30]: 2.03%

CCc1c2c(nc3ccc(O)cc13)-c1cc3c(c(=O)n1C2)COC(=O)[C@]3(O)CC + CC(CO)NC(=O)c1cc(-c2ccc(Cl)cc2)nn(-c2cnn(C)c2)c1=O
IC50 (second compound 0.1 µM): > 300 nM
IC50 (second compound 0.316 µM): > 300 nM
IC50 (second compound 1 µM): > 300 nM
IC50 (second compound 3.16 µM): > 300 nM
IC50 (second compound 10 µM): > 300 nM
viability, T/C [1]: 98%
viability, T/C [2]: 104%
viability, T/C [3]: 107%
viability, T/C [4]: 105%
viability, T/C [5]: 103%
viability, T/C [6]: 92.9%
viability, T/C [7]: 108%
viability, T/C [8]: 116%
viability, T/C [9]: 113%
viability, T/C [10]: 113%
viability, T/C [11]: 108%
viability, T/C [12]: 92.2%
viability, T/C [13]: 108%
viability, T/C [14]: 115%
viability, T/C [15]: 117%
viability, T/C [16]: 98.4%
viability, T/C [17]: 101%
viability, T/C [18]: 81.8%
viability, T/C [19]: 112%
viability, T/C [20]: 110%
viability, T/C [21]: 105%
viability, T/C [22]: 104%
viability, T/C [23]: 101%
viability, T/C [24]: 85.3%
viability, T/C [25]: 111%
viability, T/C [26]: 111%
viability, T/C [27]: 112%
viability, T/C [28]: 107%
viability, T/C [29]: 107%
viability, T/C [30]: 87.7%

Nc1ccccc1NC(=O)c1ccc(CNC(=O)OCc2cccnc2)cc1 + CC(CO)NC(=O)c1cc(-c2ccc(Cl)cc2)nn(-c2cnn(C)c2)c1=O
IC50 (second compound 0.1 µM): 509 nM
IC50 (second compound 0.316 µM): 519 nM
IC50 (second compound 1 µM): 523 nM
IC50 (second compound 3.16 µM): 596 nM
IC50 (second compound 10 µM): 593 nM
viability, T/C [31]: 80.5%
viability, T/C [32]: 81.1%
viability, T/C [33]: 62.6%
viability, T/C [34]: 29.9%
viability, T/C [35]: 15.4%
viability, T/C [36]: 0.46%
viability, T/C [37]: 87.5%
viability, T/C [38]: 81.5%
viability, T/C [39]: 61.6%
viability, T/C [40]: 33.7%
viability, T/C [41]: 12.8%
viability, T/C [42]: 0.5%
viability, T/C [43]: 87.9%
viability, T/C [44]: 79.3%
viability, T/C [45]: 63.2%
viability, T/C [46]: 32.9%
viability, T/C [47]: 14.5%
viability, T/C [48]: 0.63%
viability, T/C [49]: 85.6%
viability, T/C [50]: 89.4%
viability, T/C [51]: 65.3%
viability, T/C [52]: 34.7%
viability, T/C [53]: 15.3%
viability, T/C [54]: 0.42%
viability, T/C [55]: 91.7%
viability, T/C [56]: 87.5%
viability, T/C [57]: 74.1%
viability, T/C [58]: 29.2%
viability, T/C [59]: 12.9%
viability, T/C [60]: 0.86%

O=C(c1cc(Cc2n[nH]c(=O)c3ccccc23)ccc1F)N1CCN(C(=O)C2CC2)CC1 + CC(CO)NC(=O)c1cc(-c2ccc(Cl)cc2)nn(-c2cnn(C)c2)c1=O
IC50 (second compound 0.1 µM): > 10000 nM
IC50 (second compound 0.316 µM): > 10000 nM
IC50 (second compound 1 µM): > 10000 nM
IC50 (second compound 3.16 µM): > 10000 nM
IC50 (second compound 10 µM): > 10000 nM
viability, T/C [31]: 109%
viability, T/C [32]: 114%
viability, T/C [33]: 99.8%
viability, T/C [34]: 93.3%
viability, T/C [35]: 106%
viability, T/C [36]: 96.3%
viability, T/C [37]: 103%
viability, T/C [38]: 109%
viability, T/C [39]: 103%
viability, T/C [40]: 102%
viability, T/C [41]: 105%
viability, T/C [42]: 96.8%
viability, T/C [43]: 105%
viability, T/C [44]: 102%
viability, T/C [45]: 99.7%
viability, T/C [46]: 102%
viability, T/C [47]: 102%
viability, T/C [48]: 98.7%
viability, T/C [49]: 101%
viability, T/C [50]: 103%
viability, T/C [51]: 107%
viability, T/C [52]: 98.9%
viability, T/C [53]: 109%
viability, T/C [54]: 94.9%
viability, T/C [55]: 113%
viability, T/C [56]: 103%
viability, T/C [57]: 109%
viability, T/C [58]: 109%
viability, T/C [59]: 109%
viability, T/C [60]: 102%
